Measurements published in PubChem BioAssay AID1613 (NINDS Approved Drug Screening Program, 2009).

System: GFP-SOD1 mutant aggregation, cell imaging
Experiment: inhibitors of mutant SOD1 aggregation, cell-based (AID 1613)

SMILES	EC50
C[C@H]1O[C@@H](O[C@H]2[C@@H](O)C[C@H](O[C@H]3[C@@H](O)C[C@H](O[C@H]4CC[C@]5(C)C6C[C@@H](O)[C@]7(C)[C@@H](C8=CC(=O)OC8)CC[C@]7(O)C6CC[C@@H]5C4)O[C@@H]3C)O[C@@H]2C)C[C@H](O)[C@@H]1O (some centres undefined)	20 µM
C[n+]1c2cc(N)ccc2cc2ccc(N)cc21	10 µM
CC(=O)O[C@H]1C(=O)[C@@]2(C)C([C@H](OC(=O)c3ccccc3)[C@]3(O)C[C@H](OC(=O)[C@H](O)[C@@H](NC(=O)c4ccccc4)c4ccccc4)C(C)=C1C3(C)C)[C@]1(OC(C)=O)CO[C@@H]1C[C@@H]2O (some centres undefined)	5 µM
C[C@@H]1C[C@@H]([C@H](O)CC2CC(=O)NC(=O)C2)C(=O)[C@@H](C)C1	2 µM
O=C1c2c(O)ccc(O)c2C(=O)c2c(NCCNCCO)ccc(NCCNCCO)c21	5 µM
C[C@H]1O[C@@H](O[C@H]2[C@@H](O)C[C@H](O[C@H]3[C@@H](O)C[C@H](O[C@H]4CC[C@]5(C)C6CC[C@]7(C)[C@@H](C8=CC(=O)OC8)CC[C@]7(O)C6CC[C@@H]5C4)O[C@@H]3C)O[C@@H]2C)C[C@H](O)[C@@H]1O (some centres undefined)	20 µM
CCN(CC)CCNc1ccc(CO)c2sc3ccccc3c(=O)c12	20 µM
CC[C@H]1CN2CCc3cc(OC)c(OC)cc3C2C[C@@H]1CC1NCCc2cc(OC)c(OC)cc21 (some centres undefined)	5 µM
COc1ccc(C[C@H]2NC[C@H](O)[C@H]2OC(C)=O)cc1	2 µM
CO[C@H]1[C@H](O)[C@H](O[C@H]2CC[C@]3(C)C4CC[C@]5(C)C(C6=CC(=O)OC6)CC[C@]5(O)C4CC[C@@H]3C2)O[C@@H](C)[C@@H]1O (some centres undefined)	5 µM
CC(=O)O[C@H]1C[C@H](O[C@H]2[C@@H](O)C[C@H](O[C@H]3[C@@H](O)C[C@H](O[C@H]4CC[C@@]5(C)C(CCC6C5C[C@@H](O)[C@]5(C)[C@@H](C7=CC(=O)OC7)CC[C@]65O)C4)O[C@@H]3C)O[C@@H]2C)O[C@H](C)[C@H]1O[C@@H]1O[C@H](CO)[C@@H](O)[C@H](O)[C@H]1O (some centres undefined)	5 µM
C[C@]12CCC3C(CC[C@]4(O)C[C@@H](O)CC[C@]34C=O)[C@@]1(O)CCC2C1=CC(=O)OC1 (some centres undefined)	5 µM
CC[C@@]1(O)C(=O)OCc2c1cc1n(c2=O)Cc2cc3ccccc3nc2-1	15 µM
CO[C@H]1[C@H](O)[C@@H](O[C@H]2CC[C@]3(C=O)C4CC[C@]5(C)[C@@H](C6=CC(=O)OC6)CC[C@]5(O)C4CC[C@@H]3C2)O[C@@H](C)[C@@H]1O (some centres undefined)	5 µM
